Assay results taken from PubChem BioAssay AID651703 (Broad Institute, 2012).
Values joined by “and” are separate entries in the source; they are usually repeats but may differ in a detail not shown here. Equal entries are not always repeated.

Molecular target: Transforming acidic coiled-coil-containing protein 3 (Homo sapiens) (UniProt Q9Y6A5)
Assay: ARNT/TACC3 interaction disruptors, potency, confirmation, biochemical, AlphaScreen, cherry-picked samples (AID 651703);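 also: TACC3 partner is the GST-tagged E629A mutant dimer; hits lower the signal meaning they disrupt ARNT binding to TACC3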
Details: AlphaScreen His-ARNT PAS-B / GST-TACC3 binding, luminescence

Row | Structure (SMILES) | AC50
1 | Cc1ccc(CNc2nc(-c3ccccn3)nnc2-c2ccccc2)cc1C | 0.558 µM
2 | Cc1ccccc1CS(=O)(=O)Cc1ccc(C(=O)NCc2ccccn2)o1 | 31.6 µM
3 | CSCC[C@H](NC(=O)OC(C)(C)C)C(=O)N/N=C/c1cccc2cccnc12 | 22.9 µM
4 | CCOc1cccc(/C=N/NC(=O)c2cc(-c3cccn3C)n[nH]2)c1O | 17.1 µM
5 | Cc1[nH]n(-c2ccccc2)c(=O)c1/C=N/NC(=O)c1cccc(F)c1 | 9.69 µM
6 | O=C(NNc1ccccn1)C(=O)NNS(=O)(=O)c1ccc(Cl)cc1 | 15.6 µM
7 | COc1ccc(NC(=O)N[C@H]2CC[C@@H](CCn3cc(-c4ccccn4)nn3)O[C@@H]2CO)cc1 | 13.3 µM
8 | COc1ccc(NC(=O)Nc2ccc3c(c2)CC(=O)N([C@@H](C)CO)C[C@@H](C)[C@H](CN(C)Cc2ccc(Oc4ccccc4)cc2)O3)cc1 | 23.2 µM
9 | COc1cc(CNCc2ccccn2)ccc1OCc1ccc(Cl)cc1 | 60.7 µM
10 | Cc1ccc(Nc2c(-c3ccccn3)nc3cc(C)ccn23)cc1 | 3.02 µM
11 | COc1ccc(O)c(/C=N\NC(=O)CCn2nnc3ccccc32)c1 | 33.4 µM
12 | O=C(Nc1nccs1)c1cnccn1 | 63.9 µM
13 | Cc1ccc(S(=O)(=O)n2oc(=O)c(C3CCCCC3)c2N)cc1 | 16 µM
14 | CS(=O)(=O)c1cccc(C(=O)Nc2nnc(C3=COCCO3)o2)c1 | 45.6 µM
15 | Brc1ccc(-c2nn3c(-c4ccccn4)nnc3s2)o1 | 9.12 µM
16 | Oc1ccc(/C=N/Nc2ncc(Br)cn2)c(O)c1 | 6.19 µM
17 | Nc1nc(-c2ccccn2)nc(N)c1Cc1ccccc1F | 3.39 µM
18 | O=C(CN1C(=O)COc2ccccc21)Nc1ccc(F)cc1 | 3.96 µM
19 | O=C(N[C@@H]1CC[C@H](CCn2cc(-c3ccccn3)nn2)O[C@H]1CO)c1cccnc1 | 12.2 µM
20 | Cc1ccc(NC(=O)CSc2n[nH]c(-c3ccccn3)n2)cc1 | 2.26 µM
21 | CCCCn1c(NC(=O)c2ccco2)c(C(=O)OCC)c2nc3ccccc3nc21 | 21.9 µM
22 | C=CCn1c(CNc2ccccc2)nnc1SCC(=O)N/N=C/c1ccc(O)cc1O | 25.1 µM
23 | c1ccc(-c2nnc(-c3ccccn3)nc2Nc2nc3ccccc3s2)cc1 | 0.509 µM

Row | Structure (SMILES) | AC50
24 | Oc1ccc(C2=Nn3c(nnc3-c3ccco3)SC2)cc1O | 6.22 µM
25 | CS(=O)(=O)c1ccccc1-c1nnc(NC(=O)c2ccc3ncsc3c2)o1 | 25.4 µM
26 | CN(C)CCCNC(=O)c1ccc(-c2cc(O)c3ncccc3c2)cc1 | 2.78 µM
27 | c1ccc(-c2nc3ccccc3[nH]2)nc1 | 44 µM
28 | O=C(Nc1nc(-c2ccccn2)cs1)c1ccc([N+](=O)[O-])o1 | 11.1 µM
29 | c1ccc(-c2ccc(SCc3cccnc3)nn2)nc1 | 1.81 µM
30 | CCCC(=O)NC(c1cccs1)c1cc([N+](=O)[O-])c2cccnc2c1O (stereo not given) | 3.51 µM
31 | O=C(N[C@@H]1CC[C@@H](CCn2cc(-c3ccccn3)nn2)O[C@H]1CO)c1ccncc1 | 16.7 µM
32 | COc1ccc(NC(=O)CSc2n[nH]c(-c3ccccn3)n2)cc1 | 0.963 µM
33 | O=S(=O)(N[C@@H]1CCCN(Cc2ccc(OCCO)cc2)C1)c1cccc2cccnc12 | 16.2 µM
34 | CCC(=O)NC(c1ccc(N(C)C)cc1)c1c(O)ccc2ccccc12 (stereo not given) | 35.5 µM
35 | COc1cc(OC)cc(C(=O)Nc2nnc(-c3cccnc3)o2)c1 | 20.8 µM
36 | Cc1cccc(Nc2nc(-c3ccccn3)cs2)n1 | 6.95 µM
37 | O=C(CNCc1ccccn1)Nc1cc(C(F)(F)F)ccc1N1CCOCC1 | 17.4 µM
38 | O=C(NCCCn1ccnc1)C(=O)NCC1OCCN1S(=O)(=O)c1ccccc1 (stereo not given) | 6.92 µM
39 | O=C(CN1CC(=O)Oc2ccccc21)NCc1ccco1 | 2.05 µM
40 | COc1ccc(NC(=O)N[C@H]2CC[C@H](CCn3cc(-c4ccccn4)nn3)O[C@@H]2CO)cc1 | 12 µM
41 | COc1ccc(C2=Nn3c(nnc3-c3ccccn3)SC2)cc1 | 11.2 µM
42 | c1ccc(-c2nnc(-c3ccccn3)nc2N2CCN(c3ccncc3)CC2)cc1 | < 0.5 µM
43 | O=C(N[C@H]1CC[C@@H](CCn2cc(-c3ccccn3)nn2)O[C@H]1CO)c1ccncc1 | 9.53 µM
44 | Cc1ccc2ccc3cccnc3c2n1 | 7.33 µM
45 | Cc1cccc(S(=O)(=O)N[C@H]2CC[C@@H](CCn3cc(-c4ccccn4)nn3)O[C@@H]2CO)c1 | 24.3 µM
46 | Cc1cccc(CNc2nc(-c3ccccn3)nnc2-c2ccccc2)c1 | < 0.5 µM

Row | Structure (SMILES) | AC50
47 | CCCn1nc(C(=O)Nc2nc(-c3ccccn3)cs2)c2ccccc2c1=O | 9.63 µM
48 | c1ccc(-c2ccc(CNc3nc(-c4ccccn4)nnc3-c3ccccc3)cc2)cc1 | 1.6 µM
49 | O=[N+]([O-])c1ccc(O)c(-c2nn[nH]n2)c1 | 14 µM
50 | CCCCCc1cc(=O)oc2c(C(CCN3CCCC3)c3ccc(N(C)C)cc3)c(OC)cc(OC)c12 (stereo not given) | 6.86 µM
51 | COc1cc(-c2nnc(NC(=O)c3ccco3)o2)cc(OC)c1OC | 66.9 µM
52 | c1ccc(-c2nnc(-c3ccccn3)nc2NCCCN2CCOCC2)cc1 | < 0.5 µM
53 | CN1CCN(C(=O)c2cccc(-c3cc(O)c4ncccc4c3)c2)CC1 | 2.72 µM
54 | O=C(Nc1nnc(-c2cccs2)o1)c1ccco1 | 48.4 µM
55 | Cc1nc2ncccn2c1-c1csc(Nc2ccccc2)n1 | 41.6 µM
56 | O=C(N[C@@H]1CC[C@@H](CCn2cc(-c3ccccn3)nn2)O[C@H]1CO)c1ccccc1 | 9.23 µM
57 | OCCN(Cc1cccnc1)Cc1ccccn1 | 2.28 µM
58 | c1ccc(-c2nnc(-c3ccccn3)nc2NCCN2CCOCC2)cc1 | 0.593 µM
59 | C/C=C/c1ccc([C@H]2[C@@H](CNC(=O)CC)N(Cc3ccccn3)[C@H]2CO)cc1 | 45 µM
60 | CCC(=O)NC(c1cc(Cl)c2cccnc2c1O)C(C)C (stereo not given) | 5.58 µM
61 | Oc1ccc(CN2CCc3ccccc3C2)c2cccnc12 | 0.919 µM and 1.08 µM and 2.25 µM
62 | C[C@@H]1CN([C@H](C)CO)S(=O)(=O)c2ccc(C3=CCCC3)cc2O[C@H]1CN(C)Cc1ccccn1 | 70 µM
63 | COC(=O)c1ccc2[nH]c3c(c2c1)CC(C)CC3 (stereo not given) | 33.2 µM
64 | N#CCC(=O)N/N=C\c1ccccc1OC/C=C/c1ccccc1 | 6.51 µM
65 | Cc1c(Cl)cccc1-c1ccc(CNCc2ccccn2)o1 | 35.2 µM
66 | CCCCC(=O)NC(c1ccc(N(C)C)cc1)c1ccc2cccnc2c1O (stereo not given) | 2.63 µM
67 | Cc1[nH]n(-c2ccccc2)c(=O)c1/C=N/NC(=O)COc1ccccc1[N+](=O)[O-] | 15.8 µM
68 | O=C(CSc1ccc2nnc(-c3ccccn3)n2n1)NCc1ccco1 | 9.49 µM
69 | O=S(=O)(N[C@@H]1CC[C@H](CCn2cc(-c3ccccn3)nn2)O[C@H]1CO)c1cccc(F)c1 | 18.2 µM

Row | Structure (SMILES) | AC50
70 | COc1cccc(C(=O)Nc2nnc(-c3cccs3)o2)c1 | 21.4 µM
71 | N#Cc1ccsc1NC(=O)c1ccccn1 | 21.9 µM
72 | O=C(CN1C(=O)/C(=C\c2cccs2)SC1=S)Nc1cccc(C(=O)O)c1 | 26.3 µM
73 | CN1CCC(=O)N(CCOc2ccccc2)CC1 | 4.44 µM
74 | O=C(CNCc1ccccn1)N1CCc2ccccc2C1 | 3.23 µM
75 | O=C(CSc1cccc2cccnc12)Nc1cc(C(=O)O)cc(C(=O)O)c1 | 17.9 µM
76 | Oc1cc(-c2ccncc2)cc2cccnc12 | 0.771 µM
77 | Cc1ccc(C(=O)Nc2cccc(C(=O)N/N=C/c3ccc(O)cc3)c2)cc1 | 32.7 µM
78 | Cc1ccc(Cn2cccc(NS(C)(=O)=O)c2=O)cc1 | 64.7 µM
79 | Cc1cc(=O)[nH]c(-n2ncc(C#N)c2N)n1 | 59.7 µM
80 | COCCn1c(-c2ccccc2)cnc1N | 31.1 µM
81 | CCN(CC)c1ccc(C(=C2C=CC(=[N+](CC)CC)C=C2)c2ccc(N(CC)CC)cc2)cc1 | 0.734 µM
82 | O=C(CCS(=O)(=O)c1ccc(F)cc1)Nc1nc(-c2ccccn2)cs1 | 6.22 µM
83 | COc1ccccc1-c1nnc(NC(=O)Cc2ccccc2)o1 | 35 µM
84 | C[C@@H](Nc1nc(-c2ccccn2)nnc1-c1ccccc1)C1CCCCC1 | 2.26 µM
85 | O=C(Nc1nnc(-c2ccc(F)cc2)o1)c1ccco1 | 37 µM
86 | O=C(CSc1ccc(-c2ccccn2)nn1)Nc1nccs1 | 2.93 µM
87 | COC(=O)c1ccc(NC(=O)CSc2ccc(-c3ccccn3)nn2)cc1 | 2.57 µM
88 | N#Cc1ccc(C(=O)Nc2nnc(-c3ccco3)o2)cc1 | 27.7 µM
89 | CC(C)Nc1nc(NC(C)C)nc(C(=O)OCCO)n1 | 41.8 µM
90 | O=C(NCCCNCCCNC(=O)c1ccc(/C=N/O)nc1)c1ccc(/C=N/O)nc1 | 4.96 µM
91 | COc1cc(/C=N/Nc2nn3cnnc3c3ccccc23)ccc1O | 6.83 µM
92 | c1ccc(-c2n[nH]c(-c3ccccn3)n2)nc1 | < 0.5 µM

Row | Structure (SMILES) | AC50
93 | Cc1ncc(CO)c(/C=N/NC(=O)c2cc(Br)ccc2O)c1O | 8.86 µM
94 | COc1cc(/C=N/NC(=O)c2cncc(Br)c2)cc([N+](=O)[O-])c1O | 42 µM
95 | COC(=O)Cc1cc(=O)n(-c2nc3ccccc3[nH]2)[nH]1 | 2.68 µM
96 | CC1CC1C(=O)Nc1nc(-c2ccccn2)cs1 (stereo not given) | 15.2 µM
97 | Cc1nnc(SCC(=O)Nc2nnc(-c3ccccc3)o2)s1 | 16.4 µM
98 | COc1ccccc1NC(=O)CSc1ccc(-c2ccccn2)nn1 | 3.1 µM
99 | C[C@@H]1CN([C@H](C)CO)C(=O)Cc2cc(N(C)C)ccc2O[C@H]1CN(C)Cc1ccc(Oc2ccccc2)cc1 | 27.5 µM
100 | COc1ccc(C2C(C#N)=C(N)Oc3n[nH]c(-c4ccccn4)c32)c(OC)c1OC (stereo not given) | 53.3 µM
101 | Cc1ccc(NC(=O)CN(C)C(=O)COc2cccc3cccnc23)cc1 | 41.7 µM
102 | C/C(=N\NC(=O)C(c1ccccc1)c1ccccc1)c1ccc(O)cc1 | 43.1 µM
103 | c1ccc(-c2nn[nH]n2)nc1 | 5.22 µM
104 | O=C(CSc1ccc(-c2ccccn2)nn1)NCc1ccccc1 | 4.18 µM
105 | O=S(=O)(N[C@@H]1CC[C@H](CCn2cc(-c3ccccn3)nn2)O[C@@H]1CO)c1cccc(Cl)c1 | 16.7 µM
106 | CCC(=O)NC(c1cc(Cl)c2cccnc2c1O)C1CC1 (stereo not given) | 9.34 µM
107 | C/C(=N\NC(=O)c1c[nH]c2ccccc12)c1ccc(C)o1 | 16.4 µM
108 | CCN(C(=O)COc1cccc2cccnc12)C1CCS(=O)(=O)C1 (stereo not given) | 45.1 µM
109 | O=C(COc1ccccc1F)Nc1nc(-c2ccccn2)cs1 | 8.38 µM
110 | O=C(N[C@@H]1CC[C@@H](CCn2cc(-c3ccccn3)nn2)O[C@H]1CO)c1cccnc1 | 11.8 µM
111 | NC1=CC(=O)C(=O)c2ccccc21 | 38.9 µM
112 | Cc1ccc2nc(-c3ccccn3)c(NC3CCCC3)n2c1 | 10.2 µM
113 | CC(C)(C)C1=Nn2c(nnc2-c2ccccn2)SC1 | 6.44 µM
114 | CO[C@@H]1CN(C)C(=O)c2ccc(NC(=O)c3ccccn3)cc2OC[C@@H](C)N(C(=O)C2CC2)C[C@H]1C | 13.1 µM
115 | CCC1CCCCN1S(=O)(=O)c1ccc(NC(=O)CSc2ncccc2C(=O)O)cc1 (stereo not given) | 15.4 µM
